# No end group written: not given here.
# Key:
# [1] = tested on: E. coli ATCC 25922; conditions: minimal inhibitory concentration, microdilution method
# [2] = tested on: human red blood cells
# [3] = tested on: methicillin-resistant S. aureus (MRSA) USA300; conditions: minimal inhibitory concentration, microdilution method
# [4] = tested on: human HEK293 cells; conditions: cited from earlier work
# [5] = tested on: human HaCaT cells; conditions: cited from earlier work
# [6] = tested on: S. aureus USA300; conditions: after peptide treatment; cited from earlier work
Substance,E. coli (MIC) [1] [µM],HL50 [2] [µM],S. aureus (MIC) [3] [µM],cytotoxicity [4],cytotoxicity [5],time to entry of non-permeable dye FITC into S. aureus [6] [s]
WWRLRRIW-NH2 [W3R],25,>200,,,,
WWWLRRIR-NH2 [W8R],25,>200,,,,
WWWLRRIW-NH2 [WT],6.2,35,3.1,less cytotoxic,less cytotoxic,
WWWLRKIW-NH2 [TetraF2W-RK],,,,,,30
WRWLRRIW-NH2 [W2R],25,100,6.2,,,
WWWRRRIW-NH2 [L4R],25,>200,,,,
WWWLRRRW-NH2 [I7R],6.2,150,3.1,,,
RWWLRRIW-NH2 [W1R],25,>200,,,,

# From PMC5603908 (Biochemistry, 2017)
